The target of assay [1] is T1, AtHPPD (Arabidopsis thaliana, UniProt P93836).
T1 construct: gene HPD; full-length, N-terminal His tag (pET15b), E. coli BL21 (DE3); Ni-NTA, ion exchange, size exclusion; homodimers in crystal
T1 sequence (P93836 1-445): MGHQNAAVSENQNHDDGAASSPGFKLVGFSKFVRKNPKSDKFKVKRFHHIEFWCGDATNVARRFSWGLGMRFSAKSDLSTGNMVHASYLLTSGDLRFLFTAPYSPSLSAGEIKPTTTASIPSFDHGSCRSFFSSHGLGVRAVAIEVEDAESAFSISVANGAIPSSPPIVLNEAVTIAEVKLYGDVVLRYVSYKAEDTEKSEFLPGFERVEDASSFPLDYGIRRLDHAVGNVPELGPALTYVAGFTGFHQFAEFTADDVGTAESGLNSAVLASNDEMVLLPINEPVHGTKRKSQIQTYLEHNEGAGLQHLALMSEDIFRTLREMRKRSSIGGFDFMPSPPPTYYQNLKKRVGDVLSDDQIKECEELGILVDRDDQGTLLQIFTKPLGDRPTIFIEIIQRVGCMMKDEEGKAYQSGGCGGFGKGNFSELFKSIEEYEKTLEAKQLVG
The assay can be described thus: HGD-coupled assay at […] nm, progress curves. It counts as biochemical.

The target in assay [2] is T2, human HPPD (Homo sapiens, UniProt P32754).
T2 construct: gene HPD
The assay can be described thus: inhibition kinetics (supplement Method S2). It counts as biochemical.

T2 sequence (P32754 2-393): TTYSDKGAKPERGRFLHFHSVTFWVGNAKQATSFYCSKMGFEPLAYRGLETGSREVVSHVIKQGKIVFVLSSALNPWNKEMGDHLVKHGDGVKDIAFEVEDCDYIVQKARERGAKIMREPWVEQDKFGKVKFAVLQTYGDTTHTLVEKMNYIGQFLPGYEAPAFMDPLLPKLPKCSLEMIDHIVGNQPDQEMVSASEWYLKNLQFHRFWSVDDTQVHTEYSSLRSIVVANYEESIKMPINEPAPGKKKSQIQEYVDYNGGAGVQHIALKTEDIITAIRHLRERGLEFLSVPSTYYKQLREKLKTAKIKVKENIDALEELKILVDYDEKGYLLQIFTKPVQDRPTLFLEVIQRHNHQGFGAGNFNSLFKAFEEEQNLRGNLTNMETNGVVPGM

What is called Ki is a measure of affinity in units of concentration, obtained from inhibition or displacement. For the compound `Cc1cccc(C)c1-n1c(=O)c2cc(C(=O)C3C(=O)CCCC3=O)ccc2n(C)c1=O` [Y13161], the Ki was 24.2 ± 1.01 nM in assay [1] and 179 ± 7.7 nM in assay [2].

For the origin of these results see PMC6750108, “Crystal Structure of 4-Hydroxyphenylpyruvate Dioxygenase in Complex with Substrate Reveals a New Starting Point for Herbicide Discovery” (Research, 2019).
